Assay results reported in patent US4789667A, “External pharmaceutical composition and methods of use” (priority 1984, dated 1988).
Like-named read-outs stand apart in the source and are kept apart here. One block for each molecule: values may come before it.

Key:
[1] = tested on: serum calcium level; type: in vivo
Procedure: This nasal drop contained 15 units/50 microliters of calcitonin. The nasal drop in a dose of 50 microliters was administered to the nasal cavity of a New Zealand rabbit (clean). The calcium concentration in the serum after administration was measured by using a calcium measuring kit (Iatoron Co.).
They were individually administered to the nasal cavity of a rabbit, and the concentration of calcium in the serum was measured.

[2] = tested on: carrageenan-induced edema; assay: Carrageenan-induced edema inhibiting effect of betamethasone valerate ointment; type: in vivo; conditions: rat paw, 0.15 part betamethasone valerate, 9.85 parts enhancer, vs gel ointment base
Procedure: The carrageenan-induced edema inhibiting effect of the ointment was examined in accordance with the method of E. Passarella [Arzneim, Forsch. 30 (I), No. 4, pages 647-651 (1980)]. Specifically, 0.1 ml of a 1% carrageenan suspension in 0.9% NaCl solution was injected into the tip of the right paw of each rat (body weight 150-175 g). The volume of the paw was measured before the administation of carrageenan and 3, 5 and 6 hours after the carrageenan administration by a mercury displacement device. The ointment was well rubbed into the inflamed site in an amount of 100 mg.
These ointments were applied to the tip of the paw, and their edema inhibiting effects were examined.
The percent edema inhibitions were calculated on the basis of the edema formation ratio of a rat to which only the gel ointment base was administered.

[3] = Drug diffusion through egg shell membrane in diffusion cell with dodecyl L-pyroglutamate; conditions: control without enhancer = 100; drug 0.05%, dodecyl L-pyroglutamate 1.0% in donor side, 37° C
[4] = tested on: serum calcium level; assay: Serum calcium after intrarectal (Asu^1.7)-eel calcitonin suppository in rats; type: in vivo; conditions: rat, 0.7 MRC unit calcitonin, 7 parts enhancer
Procedure: (Asu^1.7)-eel calcitonin was gradually added and mixed with the mixture to form a uniform composition. The composition was slightly warmed, and filled into a suppository container to form a suppository for rats having a diameter of about 3 mm and a length of about 8 mm. This suppository contained 0.7 MRC unit of calcitonin. The suppository was intrarectally administered to a rat, and the concentration of calcium in the blood serum after administration was measured by using a calcium measuring kit (made by Iatoron Co.).
For comparison, suppositories (Comparisons 76 to 87) composed of 93 parts of cacao butter, 7 parts of the various pyroglutamates shown in Table 6 and caltitonin and a suppository composed only of cacao butter and caltitonin (Comparison 88) were prepared. They wre individually administered intrarectally to rats, and the calcium concentration in the serum was measured.

[5] = tested on: blood glucose level; assay: Blood glucose after intrarectal hog insulin gelatin capsular suppository in rabbits; type: in vivo; conditions: rabbit, 9.6 units insulin, 10 parts enhancer
Procedure: Fractionated coconut oil (90 parts) and 10 parts of each of the various pyroglutamates indicated in Table 7 were uniformly mixed, and then hog insulin was gradually added to form a uniform dispersion. The dispersion was filled in a gelatin capsule for suppositoes to form a gelatin capsular suppository. The suppository contained 9.6 units of insulin. The suppository was intrarectally administered to a rabbit and the blood glucose level after administration was measured by the glucose oxidase method.
For comparison, suppositories composed of 90 parts of fractionated coconut oil, 10 parts of the various pyroglutamates indicated in Table 7 (Comparisons 89 to 102) and insulin, and a suppository composed only of fractionated coconut oil and insulin (Comparison 103) were prepared, and tested in the same way as above.

[6] = dog, in vivo
Procedure: Cacao butter (80 parts), 10 parts of each of the pyroglumtamates indicated in Table 8, and 10 parts of cephalothin sodium were uniformly mixed and then slightly warmed. The mixture was filled in a suppository container to form a suppository containing 1 g of the mixture. The suppository was administered intrarectally to a Beagle dog, and the concentration of cephalothin sodium in the blood after administration was measured by the cup method.
These suppositories were individually administered intrarectally to Beagle dogs, and the concentration of cephalothin sodium in the blood was measured.

Compound: O=C1CCC(C(=O)O)N1 (racemic) [DL-Pyroglutamic acid]
Percent decrease of the serum calcium level from that before administration ([1]; 1 h): 2.0%
Percent decrease of the serum calcium level from that before administration ([1]; 2 h): 1.0%
Percent decrease of the serum calcium level from that before administration ([1]; 3 h): 0%
Percent decrease of the serum calcium level from that before administration ([1]; 5 h): 0%
Edema inhibition ([2]; 3 hrs.): 10.8%
Edema inhibition ([2]; 6 hrs.): 11.4%
Edema inhibition ([2]; 9 hrs.): 15.2%

Compound: CN(C)CCCN1c2ccccc2Sc2ccc(Cl)cc21 [Chlorpromazine]
Relative amount of permeation after 30 minutes [3]: 124

Concentration of cephalothin sodium in the blood ([6]; 60 min): 300 ng/mL
Concentration of cephalothin sodium in the blood ([6]; 180 min): 400 ng/mL
Concentration of cephalothin sodium in the blood ([6]; 300 min): 300 ng/mL
Compound: CC(C)=CCCC(C)CCOC(=O)[C@@H]1CCC(=O)N1 (stereo partly drawn) [Compound (224), Citronyl L-pyroglutamate]
Percent decrease of the serum calcium level from that before administration ([1]; 1 hr., rabbit, nasal, 15 units/50 microliters calcitonin, 10 parts enhancer): 9.0%
Percent decrease of the serum calcium level from that before administration ([1]; 2 hrs., rabbit, nasal, 15 units/50 microliters calcitonin, 10 parts enhancer): 6.3%
Percent decrease of the serum calcium level from that before administration ([1]; 3 hrs., rabbit, nasal, 15 units/50 microliters calcitonin, 10 parts enhancer): 2.2%
Percent decrease of the serum calcium level from that before administration ([1]; 5 hrs., rabbit, nasal, 15 units/50 microliters calcitonin, 10 parts enhancer): 0.6%
Percent decrease of the serum calcium level from that before administration ([4]; 1 hr.): 29.2%
Percent decrease of the serum calcium level from that before administration ([4]; 2 hrs.): 26.7%
Percent decrease of the serum calcium level from that before administration ([4]; 3 hrs.): 11.4%
Percent decrease of the serum calcium level from that before administration ([4]; 5 hrs.): 0.9%
Percent decrease of the blood glucose level from that before administration ([5]; 30 min.): 29.2%
Percent decrease of the blood glucose level from that before administration ([5]; 1 hr.): 32.1%
Percent decrease of the blood glucose level from that before administration ([5]; 2 hrs.): 18.5%
Percent decrease of the blood glucose level from that before administration ([5]; 3 hrs.): 3.1%
Edema inhibition ([2]; 3 hrs.): 19.5%
Edema inhibition ([2]; 6 hrs.): 38.8%
Edema inhibition ([2]; 9 hrs.): 38.5%

Compound: CCCCCCCCCCCCCCCCCCCCOC(=O)[C@@H]1CCC(=O)N1 [Eicosanyl L-pyroglutamate]
Edema inhibition ([2]; 3 hrs.): 9.3%
Edema inhibition ([2]; 6 hrs.): 10.5%
Edema inhibition ([2]; 9 hrs.): 15.6%

Relative amount of permeation after 30 minutes [3]: 203
Compound: C[C@]12CC[C@@H]3c4ccc(O)cc4CC[C@H]3[C@@H]1CC[C@@H]2O [Estradiol]

Compound: CCOC(=O)[C@@H]1CCC(=O)N1 [Ethyl L-pyroglutamate]
Edema inhibition ([2]; 3 hrs.): 10.4%
Edema inhibition ([2]; 6 hrs.): 12.7%
Edema inhibition ([2]; 9 hrs.): 17.2%

Relative amount of permeation after 30 minutes [3]: 221
Compound: COC1=CC(=O)C[C@@H](C)[C@]12Oc1c(Cl)c(OC)cc(OC)c1C2=O [Griseofulvin]

Compound: CCCCCCCCCCCCCCCCCOC(=O)[C@@H]1CCC(=O)N1 [Heptadecyl L-pyroglutamate]
Edema inhibition ([2]; 3 hrs.): 11.2%
Edema inhibition ([2]; 6 hrs.): 10.6%
Edema inhibition ([2]; 9 hrs.): 16.5%

Compound: CCCCCCCOC(=O)[C@@H]1CCC(=O)N1 [Heptyl L-pyroglutamate]
Edema inhibition ([2]; 3 hrs.): 9.3%
Edema inhibition ([2]; 6 hrs.): 12.8%
Edema inhibition ([2]; 9 hrs.): 13.7%

Compound: CCCCCCOC(=O)[C@@H]1CCC(=O)N1 [Hexyl L-pyroglutamate]
Edema inhibition ([2]; 3 hrs.): 10.0%
Edema inhibition ([2]; 6 hrs.): 11.5%
Edema inhibition ([2]; 9 hrs.): 13.8%

Relative amount of permeation after 30 minutes [3]: 220
Compound: COc1ccc2c(c1)c(CC(=O)O)c(C)n2C(=O)c1ccc(Cl)cc1 [Indomethacin]

Compound: O=C1CC[C@@H](C(=O)O)N1 [L-Pyroglutamic acid]
Percent decrease of the serum calcium level from that before administration ([1]; 1 h): 1.9%
Percent decrease of the serum calcium level from that before administration ([1]; 2 h): 0.7%
Percent decrease of the serum calcium level from that before administration ([1]; 3 h): 0%
Percent decrease of the serum calcium level from that before administration ([1]; 5 h): 0%
Edema inhibition ([2]; 3 hrs.): 10.3%
Edema inhibition ([2]; 6 hrs.): 11.2%
Edema inhibition ([2]; 9 hrs.): 16.3%

Compound: C[C@](N)(Cc1ccc(O)c(O)c1)C(=O)O [Methyldopa]
Relative amount of permeation after 30 minutes [3]: 153

Compound: CCCCCCCCCCCCCCCCCCOC(=O)[C@@H]1CCC(=O)N1 [Octadecyl L-pyroglutamate]
Edema inhibition ([2]; 3 hrs.): 10.0%
Edema inhibition ([2]; 6 hrs.): 11.4%
Edema inhibition ([2]; 9 hrs.): 14.4%

Relative amount of permeation after 30 minutes [3]: 166
Compound: CCCCC[C@H](O)/C=C/[C@@H]1[C@@H](C/C=C\CCCC(=O)O)[C@@H](O)C[C@H]1O [Prostaglandin F2]

Compound: O=C(O)c1ccccc1O [Salicyclic acid]
Relative amount of permeation after 30 minutes [3]: 208
